From US11541057B2, “Thienopyrimidinone NMDA receptor modulators and uses thereof” (Cadent Therapeutics, Inc., priority 2015, dated 2023)

The molecules below were run against T1, NMDA receptor GRIN1/GRIN2B (NR2B) expressed in HEK293 cells (Homo sapiens, UniProt Q13224) (assay: Reversal of Ro 25-6981-mediated suppression of the Ca2+ response (fluo-8 fluorescence, FDSS) in HEK293 cells expressing GRIN1 and GRIN2B). Settings: % reversal=100*(R−Rneg)/(Rpos−Rneg) of Ro 25-6981 suppression of co-agonist (glutamate/glycine) Ca2+ response, 10 min pre-incubation, compound concentration not given.
T1 construct: host or cells: HEK293
Type: cell-based
Procedure, shortened: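 HEK293 with stable GRIN1 and tetracycline-induced GRIN2B, loaded with fluo-8 and preincubated 10 min with compound plus Ro 25-6981 and 5,7-dichlorokynurenic acid. Ca2+ response recorded 2 min after glutamate/glycine/CaCl2 co-agonist addition. % reversal = 100*(R−Rneg)/(Rpos−Rneg) from end fluorescence ratios.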

T1 sequence (Q13224 27-1484, other chains not shown): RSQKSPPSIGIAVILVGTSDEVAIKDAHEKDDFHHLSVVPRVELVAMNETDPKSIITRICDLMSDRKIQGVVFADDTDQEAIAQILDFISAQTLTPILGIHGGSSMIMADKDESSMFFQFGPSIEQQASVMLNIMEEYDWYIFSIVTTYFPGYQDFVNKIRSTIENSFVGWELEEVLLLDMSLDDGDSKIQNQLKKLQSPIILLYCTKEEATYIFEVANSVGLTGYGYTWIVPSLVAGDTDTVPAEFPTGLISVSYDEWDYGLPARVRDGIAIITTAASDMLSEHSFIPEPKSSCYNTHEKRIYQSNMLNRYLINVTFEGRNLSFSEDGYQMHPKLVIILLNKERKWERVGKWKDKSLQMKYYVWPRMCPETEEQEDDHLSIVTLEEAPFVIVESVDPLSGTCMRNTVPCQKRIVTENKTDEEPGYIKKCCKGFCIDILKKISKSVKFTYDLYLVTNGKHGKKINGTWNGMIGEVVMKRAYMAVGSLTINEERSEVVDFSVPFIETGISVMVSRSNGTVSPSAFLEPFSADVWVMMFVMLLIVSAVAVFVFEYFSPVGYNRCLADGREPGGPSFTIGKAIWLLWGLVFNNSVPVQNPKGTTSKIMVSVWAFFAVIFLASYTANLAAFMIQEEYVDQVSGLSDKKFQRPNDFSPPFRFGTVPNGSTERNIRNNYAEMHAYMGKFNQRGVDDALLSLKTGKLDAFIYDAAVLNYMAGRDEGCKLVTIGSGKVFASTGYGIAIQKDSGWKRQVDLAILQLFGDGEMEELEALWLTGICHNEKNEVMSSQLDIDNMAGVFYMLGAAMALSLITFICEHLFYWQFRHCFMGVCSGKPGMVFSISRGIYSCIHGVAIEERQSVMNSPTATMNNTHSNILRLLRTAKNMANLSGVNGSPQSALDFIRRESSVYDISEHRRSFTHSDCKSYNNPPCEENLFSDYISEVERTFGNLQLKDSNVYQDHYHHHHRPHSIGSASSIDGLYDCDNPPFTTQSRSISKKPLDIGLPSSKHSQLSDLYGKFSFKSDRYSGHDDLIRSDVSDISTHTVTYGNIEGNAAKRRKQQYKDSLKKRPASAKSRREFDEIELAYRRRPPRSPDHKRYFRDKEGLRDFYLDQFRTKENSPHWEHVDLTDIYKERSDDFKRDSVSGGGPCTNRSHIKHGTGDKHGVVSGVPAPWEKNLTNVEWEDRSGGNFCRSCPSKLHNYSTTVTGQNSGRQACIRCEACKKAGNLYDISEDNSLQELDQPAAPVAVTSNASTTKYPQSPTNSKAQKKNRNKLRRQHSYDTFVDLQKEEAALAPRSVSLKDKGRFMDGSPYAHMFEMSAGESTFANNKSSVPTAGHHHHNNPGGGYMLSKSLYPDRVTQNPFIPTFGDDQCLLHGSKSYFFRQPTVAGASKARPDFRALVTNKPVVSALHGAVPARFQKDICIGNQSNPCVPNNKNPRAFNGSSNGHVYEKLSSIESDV

| SMILES | Response Recovered (%) |
| --- | --- |
| Cc1sc2ncn(CC(=O)N3CCCC3C(F)(F)F)c(=O)c2c1-c1ccc(Cl)cc1 (stereo not shown) [Example 80, 5-(4-chlorophenyl)-6-methyl-3-{2-oxo-2-[2-(trifluoromethyl)pyrrolidin-1-yl]ethyl}-3H,4H-thieno[2,3-d]pyrimidin-4-one] | 10% |
| O=C(Cn1cnc2scc(-c3ccc(OC(F)(F)F)cc3)c2c1=O)N1CCCC1 [Example 34, 3-[2-oxo-2-(pyrrolidin-1-yl)ethyl]-5-[4-(trifluoromethoxy)phenyl]-3H,4H-thieno[2,3-d]pyrimidin-4-one] | 16% |
| O=C(Cn1cnc2scc(-c3cccc(Cl)c3Cl)c2c1=O)N1CCCC1 [Example 45, 5-(2,3-dichlorophenyl)-3-[2-oxo-2-(pyrrolidin-1-yl)ethyl]-3H,4H-thieno[2,3-d]pyrimidin-4-one] | 7% |
| CN(C)c1ccc(-c2csc3ncn(CC(=O)N4CCCC4)c(=O)c23)cc1 [Example 49, 5-[4-(dimethylamino)phenyl]-3-[2-oxo-2-(pyrrolidin-1-yl)ethyl]-3H,4H-thieno[2,3-d]pyrimidin-4-one] | 0% |
| O=C(Cn1cnc2scc(-c3ccc(Cl)c(Cl)c3)c2c1=O)N1C[C@@H](F)[C@@H](F)C1 [Example 67, 5-(3,4-dichlorophenyl)-3-{2-[(3R,4S)-3,4-difluoropyrrolidin-1-yl]-2-oxoethyl}-3H,4H-thieno[2,3-d]pyrimidin-4-one] | 84% |
| CN1CCC(NC(=O)Cn2cnc3scc(-c4ccc(Cl)cc4)c3c2=O)C1 (stereo not shown) [Example 7, 2-[5-(4-chlorophenyl)-4-oxo-3H,4H-thieno[2,3-d]pyrimidin-3-yl]-N-(1-methylpyrrolidin-3-yl)acetamide] | 3% |
| CC(C(=O)N1CCCC1)n1cnc2scc(-c3ccc(F)c(Cl)c3)c2c1=O (stereo not shown) [Example 57, 5-(3-chloro-4-fluorophenyl)-3-[1-oxo-1-(pyrrolidin-1-yl)propan-2-yl]-3H,4H-thieno[2,3-d]pyrimidin-4-one] | 3% |
| O=C(Cn1cnc2scc(-c3ccc(Cl)cc3)c2c1=O)N1CCOCC1 [Example 4, 5-(4-chlorophenyl)-3-[2-(morpholin-4-yl)-2-oxoethyl]-3H,4H-thieno└2,3-d┘pyrimidin-4-one] | 3% |
| Cc1sc2ncn(CC(=O)N3CCCC3)c(=O)c2c1-c1ccc(F)c(C(F)(F)F)c1 [Example 81, 5-[4-fluoro-3-(trifluoromethyl)phenyl]-6-methyl-3-[2-oxo-2-(pyrrolidin-1-yl)ethyl]-3H,4H-thieno[2,3-d]pyrimidin-4-one] | 40% |
| O=C(Cn1cnc2scc(-c3ccccc3Cl)c2c1=O)N1CCCC1 [Example 52, 5-(2-chlorophenyl)-3-[2-oxo-2-(pyrrolidin-1-yl)ethyl]-3H,4H-thieno[2,3-d]pyrimidin-4-one] | 4% |
| O=C(Cn1cnc2scc(-c3cccc(OC(F)(F)F)c3)c2c1=O)N1CCCC1 [Example 51, 3-[2-oxo-2-(pyrrolidin-1-yl)ethyl]-5-[3-(trifluoromethoxy)phenyl]-3H,4H-thieno└2,3-d┘pyrimidin-4-one] | 27% |
| O=C(Cn1cnc2scc(-c3ccc(Cl)cc3)c2c1=O)N1CCCCC1 [Example 8, 5-(4-chlorophenyl)-3-[2-oxo-2-(piperidin-1-yl)ethyl]-3H,4H-thieno[2,3-d]pyrimidin-4-one] | 3% |
| O=C(Cn1cnc2scc(-c3ccc(F)cc3)c2c1=O)N1CCCC1C(F)(F)F (stereo not shown) [Example 27] | 7% |
| CCOC(=O)Cn1c(C)nc2scc(-c3ccc(Cl)cc3)c2c1=O [Example 97, Ethyl 2-(5-(4-chlorophenyl)-2-methyl-4-oxothieno[2,3-d]pyrimidin-3(4H)-yl)acetate] | 2% |
| O=C(Cn1cnc2scc(-c3cnc(Cl)c(Cl)c3)c2c1=O)N1CC(F)C(F)C1 (stereo not shown) [Example 72, 5-(5,6-dichloropyridin-3-yl)-3-[2-(3,4-difluoropyrrolidin-1-yl)-2-oxoethyl]-3H,4H-thieno[2,3-d]pyrimidin-4-one] | 15% |
| O=C(Cn1cnc2scc(-c3ccc(Cl)cc3)c2c1=O)N1CCCC1C(F)(F)F (stereo not shown) [Example 11, 5-(4-chlorophenyl)-3-{2-oxo-2-[2-(trifluoromethyl)pyrrolidin-1-yl]ethyl}-3H,4H-thieno[2,3-d]pyrimidin-4-one] | 8% |
| O=C(Cn1cnc2scc(-c3ccc(C(F)(F)F)cc3Cl)c2c1=O)N1CCCC1 [Example 43, 5-[2-chloro-4-(trifluoromethyl)phenyl]-3-[2-oxo-2-(pyrrolidin-1-yl)ethyl]-3H,4H-thieno[2,3-d]pyrimidin-4-one] | 8% |

| SMILES | Response Recovered (%) |
| --- | --- |
| Cc1sc2ncn(CC(=O)N3CCCC3)c(=O)c2c1-c1ccc(Cl)c(C(F)(F)F)c1 [Example 82, 5-[4-chloro-3-(trifluoromethyl)phenyl]-6-methyl-3-[2-oxo-2-(pyrrolidin-1-yl)ethyl]-3H,4H-thieno[2,3-d]pyrimidin-4-one] | 15% |
| O=C(Cn1cnc2scc(-c3cccc(F)c3)c2c1=O)N1CCCC1 [Example 31, 5-(3-fluorophenyl)-3-[2-oxo-2-(pyrrolidin-1-yl)ethyl]-3H,4H-thieno└2,3-d┘pyrimidin-4-one] | 3% |
| O=C(Cn1cnc2scc(-c3ccc(Cl)cc3)c2c1=O)N1CCC(F)C1 (stereo not shown) [Example 16, 5-(4-chlorophenyl)-3-[2-(3-fluoropyrrolidin-1-yl)-2-oxoethyl]-3H,4H-thieno[2,3-d]pyrimidin-4-one] | 21% |
| COc1ccc(-c2csc3ncn(CC(=O)N4CCCC4)c(=O)c23)cc1 [Example 41, 5-(4-methoxyphenyl)-3-[2-oxo-2-(pyrrolidin-1-yl)ethyl]-3H,4H-thieno[2,3-d]pyrimidin-4-one] | 5% |
| Cn1nccc1-c1csc2ncn(CC(=O)N3CCCC3)c(=O)c12 [Example 33, 5-(1-methyl-1H-pyrazol-5-yl)-3-[2-oxo-2-(pyrrolidin-1-yl)ethyl]-3H,4H-thieno[2,3-d]pyrimidin-4-one] | 1% |
| O=C(Cn1cnc2scc(-c3ccc(Cl)cc3)c2c1=O)NC1CC1 [Example 5, 2-[5-(4-chlorophenyl)-4-oxo-3H,4H-thieno[2,3-d]pyrimidin-3-yl]-N-cyclopropylacetamide] | 2% |
| O=C(Cn1cnc2scc(-c3ccc(F)cc3)c2c1=O)N1CCCCC1 [Example 24, 5-(4-fluorophenyl)-3-[2-oxo-2-(piperidin-1-yl)ethyl]-3H,4H-thieno[2,3-d]pyrimidin-4-one] | 4% |
| Cc1sc2ncn(CC(=O)N3CCCC3)c(=O)c2c1-c1ccc(Cl)cc1 [Example 79, 5-(4-Chloro-phenyl)-6-methyl-3-(2-oxo-2-pyrrolidin-1-yl-ethyl)-3H-thieno[2,3-d]pyrimidin-4-one] | 17% |
| O=C(Cn1cnc2scc(-c3cnc(Cl)c(C(F)(F)F)c3)c2c1=O)N1CCC(F)C1 (stereo not shown) [Example 70, 5-[6-chloro-5-(trifluoromethyl)pyridin-3-yl]-3-[2-(3-fluoropyrrolidin-1-yl)-2-oxoethyl]-3H,4H-thieno[2,3-d]pyrimidin-4-one] | 22% |
| Cc1cc(C(F)(F)F)ccc1-c1csc2ncn(CC(=O)N3CCCC3)c(=O)c12 [Example 50] | 9% |
| COc1ccc(-c2csc3ncn(CC(=O)N4CCCC4)c(=O)c23)cn1 [Example 36, 5-(6-methoxypyridin-3-yl)-3-[2-oxo-2-(pyrrolidin-1-yl)ethyl]-3H,4H-thieno[2,3-d]pyrimidin-4-one] | 2% |
| O=C(Nn1cnc2scc(-c3ccc(F)c(Cl)c3)c2c1=O)N1CCCC1 [Example 90] | 10% |
| O=C(Cn1cnc2scc(-c3ccc(F)c(C(F)(F)F)c3)c2c1=O)N1CCC(F)C1 (stereo not shown) [Example 61] | 83% |
| O=C(Nn1cnc2scc(-c3ccc(Cl)c(C(F)(F)F)c3)c2c1=O)C1CCCC1 [Example 95, N-(5-(4-chloro-3-(trifluoromethyl)phenyl)-4-oxothieno[2,3-d]pyrimidin-3(4H)-yl)cyclopentanecarboxamide] | 21% |
| O=C(Cn1cnc2scc(-c3cnc(F)c(Cl)c3)c2c1=O)N1CC(F)C(F)C1 (stereo not shown) [Example 73, 5-(5-chloro-6-fluoropyridin-3-yl)-3-[2-(3,4-difluoropyrrolidin-1-yl)-2-oxoethyl]-3H,4H-thieno[2,3-d]pyrimidin-4-one] | 11% |
| O=C(Cn1cnc2scc(-c3ccc(Cl)cc3)c2c1=O)N1CCC(O)CC1 [Example 1, 5-(4-chlorophenyl)-3-(2-(4-hydroxypiperidin-1-yl)-2-oxoethyl)thieno[2,3-d]pyrimidin-4(3H)-one] | 0% |
| N#Cc1ccc(-c2csc3ncn(CC(=O)N4CCCC4)c(=O)c23)cc1 [Example 32, 4-{4-oxo-3-[2-oxo-2-(pyrrolidin-1-yl)ethyl]-3H,4H-thieno[2,3-d]pyrimidin-5-yl}benzonitrile] | 2% |
